In patent US12344597B2, “Alkoxy-substituted pyridinyl derivatives as LPA1 receptor antagonists and their use in the treatment of fibrosis” (IDORSIA PHARMACEUTICALS LTD, priority 2018, dated 2025):

target: human LPA1 receptor (Homo sapiens (Human), UniProt Q92633); assay: Beta-arrestin recruitment assay to determine IC50 values for human LPAR1; format: cell-based; details: antagonist mode, Tango EDG2-bla U2OS cells, LPA 18:1 500 nM final
Method in brief: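 Antagonist IC50 = concentration giving 50% inhibition of maximal LPA response. Read-out is beta-lactamase reporter activity after arrestin-protease recruitment in U2OS cells bearing LPA1-TEV-Gal4-VP16 construct; cells pre-incubated 20 h, 37 °C, 5% CO2.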

human LPA1 receptor, sequence (Q92633 whole entry, the tested form may be a part): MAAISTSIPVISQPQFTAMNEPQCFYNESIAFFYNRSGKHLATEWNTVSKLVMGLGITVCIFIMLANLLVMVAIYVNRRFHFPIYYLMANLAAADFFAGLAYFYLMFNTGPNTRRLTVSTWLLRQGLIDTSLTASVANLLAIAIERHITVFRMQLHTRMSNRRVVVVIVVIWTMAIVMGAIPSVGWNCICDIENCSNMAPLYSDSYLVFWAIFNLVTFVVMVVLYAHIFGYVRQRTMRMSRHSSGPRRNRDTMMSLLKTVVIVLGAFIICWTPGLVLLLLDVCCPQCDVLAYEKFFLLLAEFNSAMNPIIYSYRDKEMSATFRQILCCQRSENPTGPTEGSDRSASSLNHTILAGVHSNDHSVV

IC50 | Structure (SMILES)
21 nM | Cc1ccc(NC(=O)C2(c3ccccc3C(C)C)CCN(C(=O)C[C@@H]3OC(C)(C)OC3=O)CC2)c(OC(F)F)n1 [Ex 12-36, (S)-N-(2-(difluoromethoxy)-6-methylpyridin-3-yl)-1-(2-(2,2-dimethyl-5-oxo-1,3-dioxolan-4-yl)acetyl)-4-(2-isopropylphenyl)piperidine-4-carboxamide]
63 nM | COc1cnc(NC(=O)C2(c3ccccc3C(C)C)CN(S(N)(=O)=O)C2)c(OC)c1 [Ex 81-5, N-(3,5-dimethoxypyridin-2-yl)-3-(2-isopropylphenyl)-1-sulfamoylazetidine-3-carboxamide]
7 nM | Cc1ccc(NC(=O)C2(c3ccccc3C(C)C)CN(C(=O)C(F)(F)CC(=O)O)C2)c(OC(F)F)n1 [Ex 12-115, 4-(3-((2-(difluoromethoxy)-6-methylpyridin-3-yl)carbamoyl)-3-(2-isopropylphenyl)azetidin-1-yl)-3,3-difluoro-4-oxobutanoic acid]
7 nM | Cc1ccc(NC(=O)C2(c3ccccc3C(C)C)CN(c3cccc(C(=O)O)n3)C2)c(OC(F)F)n1 [Ex 18-3, 6-(3-((2-(difluoromethoxy)-6-methylpyridin-3-yl)carbamoyl)-3-(2-isopropylphenyl)azetidin-1-yl)picolinic acid]
12 nM | Cc1ccc(NC(=O)C2(c3ccccc3C(C)C)CN(CCC3(O)CC3)C2)c(OC(F)F)n1 [Ex 11-10, N-(2-(difluoromethoxy)-6-methylpyridin-3-yl)-1-(2-(1-hydroxycyclopropyl)ethyl)-3-(2-isopropylphenyl)azetidine-3-carboxamide]
4.3 nM | Cc1ccc(NC(=O)C2(c3ccccc3C(C)C)CCN(C(=O)OCC(=O)O)CC2)c(OC(F)F)n1 [Ex 14-2, 2-((4-((2-(difluoromethoxy)-6-methylpyridin-3-yl)carbamoyl)-4-(2-isopropylphenyl)piperidine-1-carbonyl)oxy)acetic acid]
58 nM | Cc1ccc(NC(=O)C2(c3ccccc3C(C)C)CN(C(=O)CCNCCO)C2)c(OC(F)F)n1 [Ex 12-60, N-(2-(difluoromethoxy)-6-methylpyridin-3-yl)-1-(3-((2-hydroxyethyl)amino)propanoyl)-3-(2-isopropylphenyl)azetidine-3-carboxamide]
481 nM | Cc1ccc(NC(=O)C2(c3ccccc3C(C)C)CN(C(=O)[C@H](CO)NC(=O)OC(C)(C)C)C2)c(OC(F)F)n1 [Ex 12-39, tert-butyl (S)-(1-(3-((2-(difluoromethoxy)-6-methylpyridin-3-yl)carbamoyl)-3-(2-isopropylphenyl)azetidin-1-yl)-3-hydroxy-1-oxopropan-2-yl)carbamate]
15 nM | Cc1ccc(NC(=O)C2(c3ccccc3C(C)C)CN(CCCC(C)(C)C(=O)O)C2)c(OC(F)F)n1 [Ex 11-69, 5-(3-((2-(difluoromethoxy)-6-methylpyridin-3-yl)carbamoyl)-3-(2-isopropylphenyl)azetidin-1-yl)-2,2-dimethylpentanoic acid]
10 nM | COCCNCC(=O)N1CC(C(=O)Nc2ccc(C)nc2OC(F)F)(c2ccccc2C(C)C)C1 [Ex 12-54, N-(2-(difluoromethoxy)-6-methylpyridin-3-yl)-3-(2-isopropylphenyl)-1-((2-methoxyethyl)glycyl)azetidine-3-carboxamide]
19 nM | Cc1ccc(NC(=O)C2(c3ccccc3C(C)C)CN(C(=O)C3(C(=O)O)CC3)C2)c(OC(F)F)n1 [Ex 12-64, 1-(3-((2-(difluoromethoxy)-6-methylpyridin-3-yl)carbamoyl)-3-(2-isopropylphenyl)azetidine-1-carbonyl)cyclopropane-1-carboxylic acid]
14 nM | Cc1ccc(NC(=O)C2(c3ccccc3C(C)C)CN(S(=O)(=O)/C=C/C(=O)O)C2)c(OC(F)F)n1 [Ex 13-21, (E)-3-((3-((2-(difluoromethoxy)-6-methylpyridin-3-yl)carbamoyl)-3-(2-isopropylphenyl)azetidin-1-yl)sulfonyl)acrylic acid]
10 nM | CC(=O)N1CC(C(=O)Nc2ccc(C)nc2OC(F)F)(c2ccccc2C(C)C)C1 [Ex 12-2, 1-acetyl-N-(2-(difluoromethoxy)-6-methylpyridin-3-yl)-3-(2-isopropylphenyl)azetidine-3-carboxamide]
19 nM | Cc1ccc(NC(=O)C2(c3ccccc3C(C)C)CCN(C(=O)OC(C)(C)C)CC2)c(OC(F)F)n1 [Ex 4-1, tert-butyl 4-((2-(difluoromethoxy)-6-methylpyridin-3-yl)carbamoyl)-4-(2-isopropylphenyl)piperidine-1-carboxylate]
10 nM | Cc1ccc(NC(=O)C2(c3ccccc3C(C)C)CN(C(=O)CN[C@@H](C)CO)C2)c(OC(F)F)n1 [Ex 12-59, (S)-N-(2-(difluoromethoxy)-6-methylpyridin-3-yl)-1-((R)-(1-hydroxypropan-2-yl)glycyl)-3-(2-isopropylphenyl)azetidine-3-carboxamide]
7 nM | Cc1ccc(NC(=O)C2(c3ccccc3C(C)C)CN(S(N)(=O)=O)C2)c(OC(C)C)n1 [Ex 15-18, N-(2-isopropoxy-6-methylpyridin-3-yl)-3-(2-isopropylphenyl)-1-sulfamoylazetidine-3-carboxamide]
95 nM | Cc1ccc(NC(=O)C2(c3ccccc3C(C)C)CN(C(=O)CNC(C)(C)CC(=O)O)C2)c(OC(F)F)n1 [Ex 47, 3-((2-(3-((2-(difluoromethoxy)-6-methylpyridin-3-yl)carbamoyl)-3-(2-isopropylphenyl)azetidin-1-yl)-2-oxoethyl)amino)-3-methylbutanoic acid]
400 nM | COC(=O)C1(CN2CC(C(=O)Nc3ccc(C)nc3OC(F)F)(c3ccccc3C(C)C)C2)CC1 [Ex 11-26, methyl 1-((3-((2-(difluoromethoxy)-6-methylpyridin-3-yl)carbamoyl)-3-(2-isopropylphenyl)azetidin-1-yl)methyl)cyclopropane-1-carboxylate]
68 nM | CCOC(=O)Cc1coc(CN2CC(C(=O)Nc3ccc(C)nc3OC(F)F)(c3ccccc3C(C)C)C2)n1 [Ex 11-58, ethyl 2-(2-((3-((2-(difluoromethoxy)-6-methylpyridin-3-yl)carbamoyl)-3-(2-isopropylphenyl)azetidin-1-yl)methyl)oxazol-4-yl)acetate]
10 nM | COC(=O)c1cnc(N2CC(C(=O)Nc3ccc(C)nc3OC(F)F)(c3ccccc3C(C)C)C2)cn1 [Ex 18-8, methyl 5-(3-((2-(difluoromethoxy)-6-methylpyridin-3-yl)carbamoyl)-3-(2-isopropylphenyl)azetidin-1-yl)pyrazine-2-carboxylate]
9 nM | Cc1ccc(NC(=O)C2(c3ccccc3C(C)C)CCN(C(=O)CNCCO)CC2)c(OC(F)F)n1 [Ex 12-50, N-(2-(difluoromethoxy)-6-methylpyridin-3-yl)-1-((2-hydroxyethyl)glycyl)-4-(2-isopropylphenyl)piperidine-4-carboxamide]
28 nM | CCOC(=O)COCCN1CC(C(=O)Nc2ccc(C)nc2OC(F)F)(c2ccccc2C(C)C)C1 [Ex 11-74, ethyl 2-(2-(3-((2-(difluoromethoxy)-6-methylpyridin-3-yl)carbamoyl)-3-(2-isopropylphenyl)azetidin-1-yl)ethoxy)acetate]
60 nM | Cc1ccc(NC(=O)C2(c3ccccc3C(C)C)CN(C(=O)[C@@H](N)CO)C2)c(OC(F)F)n1 [Ex 12-40, 1-(L-seryl)-N-(2-(difluoromethoxy)-6-methylpyridin-3-yl)-3-(2-isopropylphenyl)azetidine-3-carboxamide]
